The source of these data is patent publication US11312705B2, “Heteroaryl[4,3-C]pyrimidine-5-amine derivative, preparation method therefor, and medical uses thereof” (Jiangsu Hengrui Medicine Co., Ltd., priority 2017, dated 2022).

The assay concerns the target adenosine A3 receptor (A3R) (Homo sapiens (Human), UniProt P0DMS8). The assay is described as follows: Inhibition of adenosine A3 receptor cAMP signaling pathway (HTRF cAMP, CHO-K1/A3R cells). Format: cell-based. Conditions: Table 2; for IC50: CHO-K1/A3R cells, forskolin 10 μM, 2Cl-IB-MECA 5 nM, cAMP HTRF. The source says:
Test Example 1. Determination of the inhibition activity of the compounds of the present invention on the adenosine A2a receptor (A2aR) cAMP signaling pathway, the adenosine A2b receptor (A2bR) cAMP signaling pathway, the adenosine A1 receptor (A1R) cAMP signaling pathway and the adenosine A3 receptor (A3R) cAMP signaling pathway.
The inhibition activity of the compounds of the present invention on the adenosine A2a receptor cAMP signaling pathway, the adenosine A2b receptor cAMP signaling pathway, the adenosine A1 receptor cAMP signaling pathway and the adenosine A3 receptor cAMP signaling pathway was determined by the following method. The experimental method is briefly described as follows:
2.3 Adenosine A3 receptor
CHO-K1/A3R cells were cultured in DMEM/F12 medium containing 10% fetal bovine serum and 10 μg/ml puromycin. The cells were digested with the cell separation buffer during the experiment. The cells were resuspended in the balanced salt buffer containing 20 mM HEPES and 0.1% bovine serum albumin and counted, and the cell density was adjusted to 5×10^5 cells/ml. In the 384-well plate, each well was added with 12.5 μl of cell suspension, and 6.25 μl of test compound (4× concentration) formulated with the balanced salt buffer containing 20 mM HEPES, 0.1% bovine serum albumin, 54 μM rolipram and 2.7 U/ml adenosine deaminase, and the plate was incubated at room temperature for 30 minutes. Each well was then added with 6.25 μl of forskolin and 2Cl-IB-MECA (4× concentration) formulated with the balanced salt buffer containing 20 mM HEPES, 0.1% bovine serum albumin, 54 μM rolipram and 2.7 U/ml adenosine deaminase, and the plate was incubated at room temperature for 30 minutes. The final concentrations of the compounds were: 100000, 10000, 1000, 100, 10, 1, 0.1 and 0 nM. The final concentration of forskolin was 10 μM. The final concentration of 2Cl-IB-MECA was 5 nM. Intracellular cAMP concentration was detected with the cAMP dynamic 2 kit. cAMP-d2 and Anti-cAMP-Eu-Cryptate were diluted respectively with the cAMP lysis buffer at a ratio of 1:4. Each well was added with 12.5 μl of diluted cAMP-d2, followed by addition of 12.5 μl of diluted Anti-cAMP-Eu-Cryptate, and the plate was incubated at room temperature in the dark for 1 hour. The HTRF signal values were read by the PHERAstar multi-function microplate reader.

adenosine A3 receptor (A3R), sequence (P0DMS8 whole entry): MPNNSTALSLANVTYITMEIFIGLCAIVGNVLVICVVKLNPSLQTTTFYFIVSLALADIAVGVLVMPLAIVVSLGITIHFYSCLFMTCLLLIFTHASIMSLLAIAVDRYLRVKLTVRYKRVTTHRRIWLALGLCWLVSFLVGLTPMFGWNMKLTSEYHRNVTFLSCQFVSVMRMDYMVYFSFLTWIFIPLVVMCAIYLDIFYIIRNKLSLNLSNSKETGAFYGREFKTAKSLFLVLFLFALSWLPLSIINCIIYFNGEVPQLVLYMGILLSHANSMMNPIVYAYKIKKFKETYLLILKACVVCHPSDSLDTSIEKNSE

As to `Cc1cc(-c2c(-c3ccc(F)cc3F)nc(N)n3cnnc23)cc(C(F)F)n1` [Example 20, 8-(2-(Difluoromethyl)-6-methylpyridin-4-yl)-7-(2,4-difluorophenyl)-[1,2,4]triazolo[4,3-c]pyrimidin-5-amine], the “IC50 ratio (A3R/A2aR)” value is given as >4.3 × 10^3 and the IC50 is > 10000 nM.
For `Cc1cc(-c2c(-c3ccc(F)cc3F)nc(N)n3cnnc23)cc(C(F)(F)F)n1` [Example 18, 7-(2,4-Difluorophenyl)-8-(2-methyl-6-(trifluoromethyl)pyridin-4-yl)-[1,2,4]triazolo[4,3-c]pyrimidin-5-amine], in that order: >2.5 × 10^3 and > 10000 nM.
